Assay results from patent publication US4578245A, “Multilayer analytical element” (Fuji Photo Film Co., Ltd., priority 1982, dated 1986).

Test: Relative Sensitivity in Aqueous Solution System (color formation with H2O2, peroxidase and 1,7-dihydroxynaphthalene)
Conditions: relative steepness of calibration curve; reference (C1) = 1.0; pH 6.0; 37° C., 10 min; 515 nm
Experimental: The following color-forming composition solutions were prepared using, as coupler, 1,7-dihydroxynaphthalene and, as chromogen, the compounds (1), (6), (7), (18), (C1) and (C2), respectively.
1,7-Dihydroxynaphthalene: 50 μmol
Phosphate buffer: added to adjust to pH 6.0
The color-forming solution having the above composition (5 ml.) was incubated at 37° C. for 3 min., and subsequently 50 μl. of aqueous H2 O2 solution (four levels from 1 mmol to 6 mmol and blank, respectively) was dropped into the incubated color-forming solution. The solution was further incubated at 37° C. for 10 min., and immediately subjected to transmissive spectroscopy at the wavelength of 515 nm for measurement of optical density of the formed color. The relationships between the H2 O2 concentrations and the measured optical density values on the formed color (the value was calculated by subtracting an optical density of the color formed in the blank solution from an optical density of the color formed in the aqueous H2 O2 incorporated solution) were plotted on an orthgonal axes graph to determine the steepness of slope of the calibration curve. The relative sensitivity of each compound is set forth in Table 6 in terms of a relative steepness value based on the reference steepness obtained in the measurement on the solution using the compound (C1). In Table 6, the reference steepness is given as 1.0.

| Relative Sensitivity (aq. sol.) | SMILES |
| --- | --- |
| 0.70 | Cc1c(N)c(=O)n(-c2c(Cl)cc(Cl)cc2Cl)n1C [Compound (6)] |
| 1.0 | Cc1c(N)c(=O)n(-c2ccccc2)n1C [Compound (C1), 4-amino-2,3-dimethyl-1-phenyl-3-pyrazolin-5-one, reference compound] |

Second part, the compound before the results:

| SMILES | Relative Sensitivity (aq. sol.) |
| --- | --- |
| Cc1c(N)c(=O)n(-c2cccc(Cl)c2)n1C [(1)] | 0.99 |
| Cn1c(-c2ccccc2)c(N)c(=O)n1-c1ccccc1 [(18)] | 0.82 |
| Cn1c(-c2ccccc2)c(N)c(=O)n1C [(C2), reference compound] | 0.77 |
